Laboratory results as given in PMC10653547, “Synergistic effect of two antimicrobial peptides, BP203 and MAP-0403 J-2 with conventional antibiotics against colistin-resistant Escherichia coli and Klebsiella pneumoniae clinical isolates” (PLOS ONE, 2023).

What was measured:
[1] = tested on: colistin-resistant K. pneumoniae clinical isolates; experiment: Checkerboard assay for synergy testing; format: cell-based, Klebsiella pneumoniae; conditions: checkerboard Ceftazidime+MAP-0403 J-2
Experimental: (§1) The synergistic activities of various two-antimicrobial combinations against colistin-resistant E. coli and K. pneumoniae isolates were evaluated using the checkerboard assay, which was performed in 96-well plates. […] Two-fold serial dilutions of peptides and antibiotics were independently prepared in CAMHB. Afterward, a mixture of different concentrations of the antibiotics and peptides was added to the wells of the microplates. Antibiotics and peptides were also dispended alone in the first row and the first column, respectively. Bacterial inoculum was added to the 96-well plate to achieve a final concentration of 5 × 10^5 CFU/mL. Then, plates were incubated at 37 °C for 20–24 h. MICs were recorded as the minimum concentration of antimicrobial agents without bacterial growth. The interaction between the antimicrobials was determined by calculating the fractional inhibitory concentration index (FICI) according to the formula: FICI = FIC(drug A) + FIC(drug B), where FIC = the MIC of the drug when in the combination/MIC of drug tested individually.

[2] = tested on: colistin-resistant K. pneumoniae clinical isolates; experiment: Disk diffusion antimicrobial susceptibility testing (CLSI); format: cell-based, Klebsiella pneumoniae; as to Interpreted results of disk diffusion: key: R: resistant; I: intermediate; SDD: susceptible-dose dependent; S: sensitive
Experimental: (§2) Ten non-duplicate clinical isolates of colistin-resistant E. coli (EC) and ten non-duplicate clinical isolates of colistin-resistant K. pneumoniae (KP) were obtained from the bacterial repository of the Division of Infectious Diseases and Tropical Medicine, Department of Medicine, Faculty of Medicine Siriraj Hospital, Mahidol University. The species identification was conducted through standard biochemical tests. Antimicrobial susceptibility testing was carried out using the disk diffusion method following CLSI guidelines. Additionally, the assessment of colistin resistance in all isolates was performed by broth microdilution following CLSI recommendations. […] The amino acid sequences of BP203 and MAP-0403 J-2 were retrieved from previous studies. These peptides are BP100 and MAP-0403 analogs, respectively. […] Antibiotic disks and defibrinated sheep blood were obtained from Oxoid (Basingstoke, UK). All culture media were purchased from Becton Dickinson (Frankin Lakes, NJ, USA). All chemicals were obtained from Sigma-Aldrich (St. Louis, MO, USA).

[3] = tested on: colistin-resistant E. coli clinical isolates; experiment: Checkerboard assay for synergy testing; format: cell-based, Escherichia coli; conditions: checkerboard Ceftazidime+MAP-0403 J-2
Experimental: as §1

[4] = tested on: colistin-resistant E. coli clinical isolates; experiment: Disk diffusion antimicrobial susceptibility testing (CLSI); format: cell-based, Escherichia coli
Experimental: as §2

CC(C)(O/N=C(\C(=O)N[C@@H]1C(=O)N2C(C(=O)[O-])=C(C[n+]3ccccc3)CS[C@H]12)c1csc(N)n1)C(=O)O [CAZ, ceftazidime]
MIC combination ([1]; isolate KP-01): 16 µg/mL
MIC combination ([1]; isolate KP-02): 16 µg/mL
MIC combination ([1]; isolate KP-03): 512 µg/mL
MIC combination ([1]; isolate KP-04): 512 µg/mL
MIC combination ([1]; isolate KP-05): 512 µg/mL
MIC combination ([1]; isolate KP-06): 32 µg/mL
MIC combination ([1]; isolate KP-07): 256 µg/mL
MIC combination ([1]; isolate KP-08): 512 µg/mL
MIC combination ([1]; isolate KP-09): 512 µg/mL
MIC combination ([1]; isolate KP-10): 32 µg/mL
Interpreted results of disk diffusion ([2]; KP-01): R
Interpreted results of disk diffusion ([2]; KP-02): R
Interpreted results of disk diffusion ([2]; KP-03): R
Interpreted results of disk diffusion ([2]; KP-04): R
Interpreted results of disk diffusion ([2]; KP-05): R
Interpreted results of disk diffusion ([2]; KP-06): R
Interpreted results of disk diffusion ([2]; KP-07): R
Interpreted results of disk diffusion ([2]; KP-08): R
Interpreted results of disk diffusion ([2]; KP-09): R
Interpreted results of disk diffusion ([2]; KP-10): R
%Resistance ([2]; ten K. pneumoniae isolates, disk diffusion): 100%
MIC alone ([3]; isolate EC-01): 8 µg/mL
MIC combination ([3]; isolate EC-01): 0.5 µg/mL
MIC alone ([3]; isolate EC-02): 16 µg/mL
MIC combination ([3]; isolate EC-02): 4 µg/mL
MIC alone ([3]; isolate EC-03): 16 µg/mL
MIC combination ([3]; isolate EC-03): 1 µg/mL
MIC alone ([3]; isolate EC-04): 4 µg/mL
MIC combination ([3]; isolate EC-04): 1 µg/mL
MIC alone ([3]; isolate EC-05): 1 µg/mL
MIC combination ([3]; isolate EC-05): 0.0625 µg/mL
MIC alone ([3]; isolate EC-06): 16 µg/mL
MIC combination ([3]; isolate EC-06): 4 µg/mL
MIC alone ([3]; isolate EC-07): 16 µg/mL
MIC combination ([3]; isolate EC-07): 2 µg/mL
MIC alone ([3]; isolate EC-08): 1 µg/mL
MIC combination ([3]; isolate EC-08): 0.25 µg/mL
MIC alone ([3]; isolate EC-09): 32 µg/mL
MIC combination ([3]; isolate EC-09): 4 µg/mL
MIC alone ([3]; isolate EC-10): 16 µg/mL
MIC combination ([3]; isolate EC-10): 2 µg/mL
Interpreted results of disk diffusion ([4]; EC-01): R
Interpreted results of disk diffusion ([4]; EC-02): I
Interpreted results of disk diffusion ([4]; EC-03): R
Interpreted results of disk diffusion ([4]; EC-04): R
Interpreted results of disk diffusion ([4]; EC-05): S
Interpreted results of disk diffusion ([4]; EC-06): R
Interpreted results of disk diffusion ([4]; EC-07): I
Interpreted results of disk diffusion ([4]; EC-08): S
Interpreted results of disk diffusion ([4]; EC-09): I
Interpreted results of disk diffusion ([4]; EC-10): S
%Resistance ([4]; ten E. coli isolates, disk diffusion): 40%
